Results published in ChEMBL document CHEMBL4418308, “cGAS ANTAGONIST COMPOUNDS” (2017).

What follows are compounds tested against Cyclic GMP-AMP synthase (Homo sapiens, UniProt Q8N884) (assay: Inhibition of recombinant His6-SUMO tagged human CGAS expressed in Escherichia coli BL21/pLys cells incubated for 20 mins by Kinase Glo chemiluminescence assay).
Chain of Cyclic GMP-AMP synthase (Q8N884 whole entry): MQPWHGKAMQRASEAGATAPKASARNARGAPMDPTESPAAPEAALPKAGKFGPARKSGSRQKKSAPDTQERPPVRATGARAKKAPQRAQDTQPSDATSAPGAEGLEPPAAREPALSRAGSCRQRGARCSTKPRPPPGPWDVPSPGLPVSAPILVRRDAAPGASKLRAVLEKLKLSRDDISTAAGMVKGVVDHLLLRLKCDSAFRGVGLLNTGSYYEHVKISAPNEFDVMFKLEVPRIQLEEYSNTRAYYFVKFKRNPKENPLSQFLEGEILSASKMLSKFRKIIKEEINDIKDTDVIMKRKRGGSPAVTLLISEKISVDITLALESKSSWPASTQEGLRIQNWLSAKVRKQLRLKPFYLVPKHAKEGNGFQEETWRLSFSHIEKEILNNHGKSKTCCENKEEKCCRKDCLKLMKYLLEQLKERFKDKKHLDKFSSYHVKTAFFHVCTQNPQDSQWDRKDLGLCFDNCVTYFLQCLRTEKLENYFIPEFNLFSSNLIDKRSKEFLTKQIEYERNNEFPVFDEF

Compound | IC50
COc1cc(/C=C2\SC(=O)N(C)C2=O)c(Br)cc1NS(=O)(=O)c1ccccc1 | ≥ 10 µM
CN1C(=O)S/C(=C\c2cc(OCc3cnc(-c4cccnc4)nc3)c(O)cc2Br)C1=O | ≥ 10 µM
CN1C(=O)S/C(=C\c2cc(OC(F)(F)F)c(Oc3cnc(N)s3)cc2Br)C1=O | ≥ 10 µM
CNc1ncc(C(C)Oc2cc(/C=C3\SC(=O)N(C)C3=O)c(Br)c(F)c2O)cn1 (stereo unspecified) | ≥ 10 µM
CN1C(=O)S/C(=C\c2cc(OCc3cnc(NC(=O)c4ccncc4)nc3)c(O)c(F)c2Br)C1=O | ≤ 0.5 µM
COc1nc(SC)ncc1COc1cc(/C=C2\SC(=O)N(C)C2=O)c(Br)cc1O | ≥ 10 µM
COc1cc(/C=c2\sc3n(c2=O)CCCN=3)c(Br)cc1O | ≥ 10 µM
CN1C(=O)S/C(=C\c2cc(OCc3ccnc(N)c3)c(O)cc2Br)C1=O | 0.5 to 10 µM
Cc1ncc(COc2cc(/C=C3\Sc4ncccc4C3=O)c(Br)cc2O)c(C)n1 | ≤ 0.5 µM
COc1cc(/C=C2\Sc3nccnc3C2=O)c(Br)cc1O | ≥ 10 µM
Cc1nc(N)ncc1C(C)Oc1cc(/C=C2\Sc3ncccc3C2=O)c(Br)c(F)c1O (stereo unspecified) | ≤ 0.5 µM
CN1C(=O)S/C(=C\c2cc(OCc3cnc(-c4ccncc4)nc3)c(O)cc2Br)C1=O | ≤ 0.5 µM
CSc1nc([S+](C)[O-])ncc1COc1cc(/C=C2\Sc3ncccc3C2=O)c(Br)c(F)c1O (stereo unspecified) | ≤ 0.5 µM
COc1nc(S(C)(=O)=O)ncc1COc1cc(/C=C2\SC(=O)N(C)C2=O)c(Br)cc1O | ≥ 10 µM
CN1C(=O)S/C(=C\c2cc(OCc3cn(-c4ccccc4)nn3)c(O)cc2Br)C1=O | ≥ 10 µM
CN1C(=O)S/C(=C\c2cc(Oc3cnc(N)s3)c(O)c(F)c2Br)C1=O | 0.5 to 10 µM
CN1C(=O)S/C(=C\c2cc(OCc3cccc4cnccc34)c(O)cc2Br)C1=O | ≥ 10 µM
COc1cc(/C=C2\SC(=O)N(C)C2=O)c(Br)cc1Oc1ccncc1 | ≥ 10 µM
CN1C(=O)S/C(=C\c2cc(OCc3cnc(N(C)C)nc3)c(O)cc2Br)C1=O | ≥ 10 µM
COc1cc(/C=C2\Sc3ncncc3C2=O)c(Br)cc1O | 0.5 to 10 µM
CN1C(=O)S/C(=C\c2cc(OCC(F)(F)c3cnc(N)nc3)c(O)c(F)c2Br)C1=O | 0.5 to 10 µM
CN1C(=O)S/C(=C\c2cc(Oc3cccc(O)c3N)c(O)cc2Br)C1=O | ≥ 10 µM
O=C1/C(=C/c2cc(OCc3ccncc3)c(O)cc2Br)Sc2ncccc21 | ≤ 0.5 µM
COc1cc(/C=C2\SC(=O)N(C)C2=O)c(Br)cc1Oc1cnc(NCc2cccnc2)s1 | ≥ 10 µM
CN1CCC(c2ncc(COc3cc(/C=C4\SC(=O)N(C)C4=O)c(Br)cc3O)cn2)CC1 | ≥ 10 µM
Cc1ncc(COc2cc(/C=C3\SC(=O)N(C)C3=O)c(Br)cc2O)cn1 | ≤ 0.5 µM

Compound | IC50
COc1cc(/C=c2\sc3n(c2=O)CCCN=3)c(Cl)cc1O | ≥ 10 µM
CC(C)CNc1cncc(COc2cc(/C=C3\SC(=O)N(C)C3=O)c(Br)cc2O)c1 | ≥ 10 µM
COc1cc(/C=C2\Sc3ncccc3C2=O)c(I)cc1O | ≤ 0.5 µM
CC(Oc1cc(/C=C2\SC(=O)N(C)C2=O)c(Br)cc1O)c1cncnc1 (stereo unspecified) | 0.5 to 10 µM
CNc1ncc(COc2cc(/C=C3\SC(=O)N(C)C3=O)c(Br)c(F)c2O)cn1 | ≤ 0.5 µM
C#Cc1cc(O)c(OC)cc1/C=C1\SC(=O)N(C)C1=O | ≥ 10 µM
CN1C(=O)S/C(=C\c2cc(Oc3cccc4cnccc34)c(O)cc2Br)C1=O | ≥ 10 µM
CC(Oc1cc(/C=C2\SC(=O)N(C)C2=O)c(Br)c(F)c1Oc1cnc(N)s1)c1cnc(N)nc1 (stereo unspecified) | 0.5 to 10 µM
CN1C(=O)S/C(=C\c2cc(OCc3ccnc(N)n3)c(O)cc2Br)C1=O | 0.5 to 10 µM
CN1C(=O)S/C(=C\c2cc(OCc3cncc(NC(=O)c4cccnc4)c3)c(O)cc2Br)C1=O | ≥ 10 µM
CN1C(=O)S/C(=C\c2cc(CCc3ccc([S+](C)[O-])cc3)c(O)cc2Br)C1=O (stereo unspecified) | ≥ 10 µM
COc1cc(/C=c2\sc3nc(C)cn3c2=O)c(Br)cc1O | ≥ 10 µM
CN1C(=O)S/C(=C\c2cc(Oc3ccccc3)c(O)cc2Br)C1=O | ≥ 10 µM
COc1cc(/C=C2\SC(=O)N(C)C2=O)c(C)cc1O | 0.5 to 10 µM
COc1cc2c(cc1O)CC/C2=C1/SC(=O)N(C)C1=O | ≥ 10 µM
CN1C(=O)S/C(=C\c2cc(C(F)(F)F)c(O)cc2Br)C1=O | ≤ 0.5 µM
CN1CCN(c2ncc(COc3cc(/C=C4\SC(=O)N(C)C4=O)c(Br)cc3O)cn2)CC1 | ≥ 10 µM
CN1C(=O)S/C(=C\c2cc(Oc3ccc([N+](=O)[O-])nc3)c(O)cc2Br)C1=O | ≥ 10 µM
CCc1cc(/C=C2\SC(=O)N(C)C2=O)c(Br)cc1O | 0.5 to 10 µM
CC(Oc1cc(/C=C2\SC(=O)N(C)C2=O)c(Br)c(F)c1O)C(O)c1cncnc1N (stereo unspecified) | ≤ 0.5 µM
Cc1nc(N)nc(C)c1COc1cc(/C=C2\SC(=O)N(C)C2=O)c(Br)cc1O | ≥ 10 µM
CN1C(=O)S/C(=C\c2cc(OCc3cnc(Nc4cccnc4)nc3)c(O)cc2Br)C1=O | 0.5 to 10 µM
CN1C(=O)S/C(=C\c2cc3c(Cc4cnc(N)nc4)c[nH]c3cc2Br)C1=O | ≥ 10 µM
Cc1nc2c(Oc3cc(/C=C4\SC(=O)N(C)C4=O)c(Br)cc3O)cccc2o1 | 0.5 to 10 µM
CN1C(=O)S/C(=C\c2cc(OCC3CCN(C(=O)c4ccccn4)CC3)c(O)cc2Br)C1=O | ≥ 10 µM
COc1cccc(Oc2cc(/C=C3\SC(=O)N(C)C3=O)c(Br)cc2O)c1N | ≥ 10 µM

Compound | IC50
CN1C(=O)S/C(=C\c2cc(OCc3ccnc4ccccc34)c(O)cc2Br)C1=O | ≥ 10 µM
CN1C(=O)S/C(=C\c2cc(OCc3cnc(Nc4ccccn4)nc3)c(O)cc2Br)C1=O | ≥ 10 µM
CN1C(=O)S/C(=C\c2cc(OCc3cncc(N)c3)c(O)cc2Br)C1=O | ≥ 10 µM
CC(=O)c1cc(/C=C2\SC(=O)N(C)C2=O)c(Br)cc1Oc1cnc(N)s1 | ≥ 10 µM
CN1C(=O)S/C(=C\c2cc(OCc3cnc(-c4ccccc4)nc3)c(O)cc2Br)C1=O | ≥ 10 µM
CSc1ncc(COc2cc(/C=C3\SC(=O)N(C)C3=O)c(Br)cc2O)c(Cl)n1 | ≥ 10 µM
CN1C(=O)S/C(=C\c2cc(OCc3ccc4cccnc4c3)c(O)cc2Br)C1=O | ≥ 10 µM
O=C1/C(=C/c2cc3nn[nH]c3cc2Br)Sc2ncccc21 | ≤ 0.5 µM
CN1C(=O)S/C(=C\c2cc(CCc3cnc(N)nc3)c(O)cc2Br)C1=O | 0.5 to 10 µM
CN1C(=O)S/C(=C\c2cc3c(-c4ccc(N)cc4)c[nH]c3cc2Br)C1=O | 0.5 to 10 µM
CN1C(=O)S/C(=C\c2cc(OCc3ccn(Cc4ccccc4)c(=O)c3)c(O)cc2Br)C1=O | ≥ 10 µM
CN1C(=O)S/C(=C\c2cc(OCC(=O)Nc3nncs3)c(O)c(F)c2Br)C1=O | 0.5 to 10 µM
COc1cc(/C=C2\SC(=O)N(C)C2=O)c(Br)cc1OCc1ccncc1 | ≥ 10 µM
CN1C(=O)S/C(=C\c2cc(OCc3cnc(NCc4ccccc4)nc3)c(O)cc2Br)C1=O | ≥ 10 µM
CC(Oc1cc(/C=C2\SC(=O)N(C)C2=O)c(Br)cc1O)c1cnc(N)nc1 (stereo unspecified) | ≤ 0.5 µM
CN1C(=O)S/C(=C\c2cc(Oc3ccncc3)c(O)cc2Br)C1=O | ≥ 10 µM
COc1nc(N)ncc1COc1cc(/C=C2\SC(=O)N(C)C2=O)c(Br)cc1O | ≥ 10 µM
COc1nc([S+](C)[O-])ncc1COc1cc(/C=C2\SC(=O)N(C)C2=O)c(Br)cc1O (stereo unspecified) | ≥ 10 µM
O=C1/C(=C/c2cc3oc(=O)[nH]c3cc2Br)Sc2ncccc21 | ≥ 10 µM
CC(=O)Nc1nc(S(=O)(=O)Nc2cc(Br)c(/C=C3\SC(=O)N(C)C3=O)cc2OCc2ccccc2)cs1 | 0.5 to 10 µM
CN1CCC(COc2cc(/C=C3\SC(=O)N(C)C3=O)c(Br)cc2O)CC1 | ≥ 10 µM
CSc1ncc(COc2cc(/C=C3\SC(=O)N(C)C3=O)c(Br)cc2O)c(SC)n1 | ≥ 10 µM
CN1C(=O)S/C(=C\c2cc(OCc3cnc(NCc4ccccn4)nc3)c(O)c(F)c2Br)C1=O | ≥ 10 µM
CN1C(=O)S/C(=C\c2cc(OCC3CCN(C(=O)c4ccncc4)CC3)c(O)cc2Br)C1=O | ≥ 10 µM
COc1cc(/C=C2\SC(=O)N(C)C2=O)c(Br)cc1Oc1ccnc2ccccc12 | ≥ 10 µM
CN1C(=O)S/C(=C\c2cc(OCCc3cnc(N)nc3N)c(O)c(F)c2Br)C1=O | ≤ 0.5 µM

Compound | IC50
CN1C(=O)S/C(=C\c2cc(OCc3ccc(NC(=O)c4ccccn4)nc3)c(O)cc2Br)C1=O | ≥ 10 µM
CC(C)CNc1ncc(COc2cc(/C=C3\SC(=O)N(C)C3=O)c(Br)cc2O)cn1 | ≥ 10 µM
CN1C(=O)S/C(=C\c2cc(OCc3cnc(-n4ccnc4)nc3)c(O)cc2Br)C1=O | 0.5 to 10 µM
CC(C)Nc1ncc(COc2cc(/C=C3\SC(=O)N(C)C3=O)c(Br)cc2O)cn1 | ≥ 10 µM
COc1cc(/C=C2\SC(=O)N(C)C2=O)c(Br)cc1Oc1nncs1 | ≥ 10 µM
CC(C)c1cc(/C=C2\SC(=O)N(C)C2=O)c(Br)cc1O | ≥ 10 µM
CN1C(=O)S/C(=C\c2cc(Oc3ccc(-c4ccncc4)cc3)c(O)cc2Br)C1=O | ≥ 10 µM
CN1C(=O)S/C(=C\c2cc(OCc3ccc(NC(=O)c4cccnc4)nc3)c(O)cc2Br)C1=O | 0.5 to 10 µM
CC(C)C(=O)Nc1cncc(COc2cc(/C=C3\SC(=O)N(C)C3=O)c(Br)cc2O)c1 | ≥ 10 µM
CN1C(=O)S/C(=C\c2cc(OCc3cnc(N4CCOCC4)nc3)c(O)cc2Br)C1=O | ≥ 10 µM
O=C1/C(=C/c2cc(C(F)(F)F)c(O)cc2Br)Sc2ncccc21 | ≤ 0.5 µM
COc1cc(/C=C/C=C2\SC(=O)N(C)C2=O)c(Br)cc1O | ≥ 10 µM
CN1C(=O)S/C(=C\c2cc(OCc3cnc(S(C)(=O)=O)nc3Cl)c(O)cc2Br)C1=O | ≥ 10 µM
CC(Cc1cnc(N)nc1)Oc1cc(/C=C2\SC(=O)N(C)C2=O)c(Br)c(F)c1O (stereo unspecified) | 0.5 to 10 µM
COc1cc(/C=C2\SC(=O)N(C)C2=O)c(Br)cc1NS(=O)(=O)C(F)(F)F | 0.5 to 10 µM
CN1C(=O)S/C(=C\c2cc(OCC3(c4cnc(N)nc4)CC3)c(O)c(F)c2Br)C1=O | 0.5 to 10 µM
COc1cc(/C=C2\Sc3ncccc3C2=O)c(Br)c(Br)c1O | ≥ 10 µM
CN1C(=O)S/C(=C\c2cc(Oc3ccc(=O)[nH]c3)c(O)cc2Br)C1=O | 0.5 to 10 µM
CN1C(=O)S/C(=C\c2cc(CC(F)(F)F)c(O)cc2Br)C1=O | 0.5 to 10 µM
CN1C(=O)S/C(=C\c2cc(OCc3cncc4ccccc34)c(O)cc2Br)C1=O | ≥ 10 µM
COc1cc(/C(Br)=C2\SC(=O)N(C)C2=O)c(Br)cc1O | ≥ 10 µM
COc1cc(/C=C2\SC(=O)N(C)C2=O)c(Br)cc1-c1nn[nH]n1 | ≥ 10 µM
CCC/N=C1/S/C(=C\c2cc(OC)c(O)cc2Br)C(=O)N1C | ≥ 10 µM
